Here are results for seven compounds from patent publication US20160222430A1, “D-ALA-D-ALA-BASED DIPEPTIDES AS TOOLS FOR IMAGING PEPTIDOGLYCAN BIOSYNTHESIS” (INDIANA UNIVERSITY RESEARCH AND TECHNOLOGY CORPORATION, priority 2013, published 2016).

Each structure is given as a SMILES string. Where two headings read alike, the source gives them in different places. Where a SMILES comes first, the peptide text is derived from it. [ ]: non-standard residue; d: D form.

The test system of assay [1] is C. trachomatis serovar L2 strain 434/Bu. The assay can be described thus: DCS Chlamydia trachomatis plaque assay in L2 mouse fibroblast monolayers. It is filed as cell-based. The note with it: DCS 294 μM.
The subject of the next assay is E. coli wt. In kind it is cell-based, Escherichia coli. Also on record: Growth rescue (culture density), E. coli wt: key: +++++: highest culture density achieved within a set; ++++: intermediate values, relative fractions of the highest culture density within a set; +++: intermediate values, relative fractions of the highest culture density within a set; ++: intermediate values, relative fractions of the highest culture density within a set; +: intermediate values, relative fractions of the highest culture density within a set; −: no bacterial growth.
The test system of the next assay is B. subtilis wt. In kind it is cell-based, Bacillus subtilis. Also on record: Growth rescue (culture density), B. subtilis wt: key: +++++: highest culture density achieved within a set; ++++: intermediate values, relative fractions of the highest culture density within a set; +++: intermediate values, relative fractions of the highest culture density within a set; ++: intermediate values, relative fractions of the highest culture density within a set; +: intermediate values, relative fractions of the highest culture density within a set; −: no bacterial growth. As to Growth (culture density), B. subtilis wt: key: +++++: highest culture density achieved within a set; ++++: intermediate values, relative fractions of the highest culture density within a set; +++: intermediate values, relative fractions of the highest culture density within a set; ++: intermediate values, relative fractions of the highest culture density within a set; +: intermediate values, relative fractions of the highest culture density within a set; −: no bacterial growth.
The next assay has as its system E. coli ΔddlA ΔddlB. It is filed as cell-based, Escherichia coli. Also: key: +++++: highest culture density achieved within a set; ++++: intermediate values, relative fractions of the highest culture density within a set; +++: intermediate values, relative fractions of the highest culture density within a set; ++: intermediate values, relative fractions of the highest culture density within a set; +: intermediate values, relative fractions of the highest culture density within a set; −: no bacterial growth.
Assay [2] deals with C. trachomatis serovar L2 strain 434/Bu. The assay is described as follows: Labeling of chlamydial PG in infected L2 cells. In kind it is cell-based, Chlamydia trachomatis. The note with it: grown for 18 h in the presence of antibiotic (DCS 294 μM or ampicillin 2.8 μM).
For another assay, the system named is E. coli cells. The assay can be described thus: PG labeling of E. coli with dipeptide probes, click chemistry and epifluorescence microscopy. It is filed as cell-based, Escherichia coli. The note with it: 0.5 mM, 45 min; clicked to Alexa Fluor 488 azide.
For a further assay, the system named is B. subtilis cells. It is filed as cell-based, Bacillus subtilis.
Another assay relates to E. coli. The assay is described as follows: FDAA/CDAA labeling of E. coli, fluorescence microscopy. In kind it is cell-based, Escherichia coli. The note with it: 2%-8% of doubling time.
The subject of another assay is A. tumefaciens. The assay can be described thus: Control experiment with fluorescent D-Ala and L-Ala in A. tumefaciens. It is filed as cell-based, Agrobacterium tumefaciens. As for the experimental part:
Control experiments were carried out in A. tumefaciens, B. subtilis and E. coli with fluorescent D-Ala (D-HCC) and fluorescent L-Ala (L-HCC). […] This observation was true for all strains tested.
For Growth (culture density), E. coli wt in this document: key: +++++: highest culture density achieved within a set; ++++: intermediate values, relative fractions of the highest culture density within a set; +++: intermediate values, relative fractions of the highest culture density within a set; ++: intermediate values, relative fractions of the highest culture density within a set; +: intermediate values, relative fractions of the highest culture density within a set; −: no bacterial growth.

In the case of `C[C@@H](N)C(=O)O` [D-Ala, D-alanine], the Plaque formation result is listed as “++++” in [1] (amino acid to DCS ratio 1:1) and “+++” in [1] (amino acid to DCS ratio 1:10).
`C[C@@H](N)C(=O)N[C@H](C)C(=O)O` [DA-DA, D-alanyl-D-alanine] (H-[dA]-[dA]-OH): the “Growth rescue (culture density), E. coli wt” value in the assay with E. coli wt was “++”. Also, the Plaque formation entry in assay [1] (amino acid to DCS ratio 1:1) is “++”; in [1] (amino acid to DCS ratio 10:1) it was “+++”. Besides, the “Growth rescue (culture density), B. subtilis wt” value in the assay with B. subtilis wt is on record as “++++”. The “Growth rescue (culture density), E. coli Δddla, Δddlb” value with E. coli ΔddlA ΔddlB (MM (M9 + 0.2% glucose) + 25 μM, initial inoculum OD600 = 0.025) is reported as “++”; in the assay on E. coli ΔddlA ΔddlB (MM + 25 μM, initial inoculum OD600 = 0.0025) it was “+”; with E. coli ΔddlA ΔddlB (MM + 200 μM, initial inoculum OD600 = 0.025), “+++++”.
As for `N[C@@H]1CONC1=O` [DCS, D-cycloserine], the “Growth (culture density), E. coli wt” value with E. coli wt was “−”. Besides, in assay [1] (no amino acid), the Plaque formation result is “−”. Also, the “Growth (culture density), B. subtilis wt” value in the assay with B. subtilis wt is listed as “−”. In [2], the “Morphology of chlamydial RBs grown with antibiotic” value is “inclusions contained enlarged, aberrant RBs”.
Regarding `C#CN[C@@H](C)C(=O)N[C@@H](C)C(=O)O` [ELA-LA, ethynyl-L-alanyl-L-alanine], the “PG labeling signal, L-enantiomer control” value in the assay with E. coli cells and in the assay on B. subtilis cells was “No labeling was observed” throughout. In addition, the “Growth rescue (culture density), E. coli Δddla, Δddlb” value is reported as “−” in the assay on E. coli ΔddlA ΔddlB (MM + 0.8 mM, initial inoculum OD600 = 0.025) and “+” in the assay on E. coli ΔddlA ΔddlB (MM + DA-DA (25 μM) + 0.80 mM of the analog, initial inoculum OD600 = 0.0025).
With `NC(CNC(=O)c1cc2ccc(O)cc2oc1=O)C(=O)O` (stereo not drawn) [HADA], in the assay on E. coli, the “Localization of signal after short labeling times” value was “preferential localization of the signal at the septal plane of pre-divisional cells and in punctate patterns on the lateral walls of elongating cells”. In the assay on A. tumefaciens, the “Incorporation into the cell wall” value was “incorporated into the cell wall”.
On to `N[C@@H](CNC(=O)c1cc2ccc(O)cc2oc1=O)C(=O)O` [HALA], for which the “Incorporation into the cell wall” value in the assay on A. tumefaciens was “only D-HCC was incorporated into the cell wall”.
Turning to `CC1(C)S[C@@H]2[C@H](NC(=O)[C@H](N)c3ccccc3)C(=O)N2[C@H]1C(=O)O` [ampicillin], the “Morphology of chlamydial RBs grown with antibiotic” value in assay [2] was “inclusions contained enlarged, aberrant RBs”.
